# Results as given in the NIST ThermoML archive (doi:10.1021/acs.jced.6b00700).
# Numbers after ± are expanded uncertainties.
# Assays:
# [1] = refractive index (Na D-line) (dimensionless); xn = mol fraction of the nth substance listed; conditions: 293 K, 96.15 kPa, Liquid, Standard Abbe refractometry
# [2] = Liquid, Ebulliometric method (Recirculating still)
# [3] = refractive index (Na D-line) (dimensionless); conditions: 293 K; 96.15 kPa; Liquid; Standard Abbe refractometry
smiles,measurement,setting,value
COc1ccccc1 [anisole] + CC(=O)O,refractive index,[1]; x2 = 0,1.5175 ± 0.004
same,refractive index,[1]; x2 = 0.0875,1.5107 ± 0.004
same,refractive index,[1]; x2 = 0.167,1.503 ± 0.004
same,refractive index,[1]; x2 = 0.3109,1.4878 ± 0.004
same,refractive index,[1]; x2 = 0.4358,1.4731 ± 0.004
same,refractive index,[1]; x2 = 0.5453,1.4584 ± 0.004
same,refractive index,[1]; x2 = 0.6416,1.4441 ± 0.004
same,refractive index,[1]; x2 = 0.7302,1.4295 ± 0.004
same,refractive index,[1]; x2 = 0.8075,1.4155 ± 0.004
same,refractive index,[1]; x2 = 0.877,1.4018 ± 0.004
same,refractive index,[1]; x2 = 0.9413,1.3874 ± 0.004
same,refractive index,[1]; x2 = 0.9711,1.3807 ± 0.004
COc1ccccc1 [anisole],vapor or sublimation pressure,[2]; 424.55 K,96.15 ± 0.99 kPa
same,vapor or sublimation pressure,[2]; 424.61 K,96.15 ± 0.99 kPa
same,vapor or sublimation pressure,[2]; 424.79 K,96.15 ± 0.99 kPa
same,refractive index,[3],1.5175 ± 0.004
COc1ccccc1 [anisole] + CC(C)=O,refractive index,[1]; x2 = 0,1.5175 ± 0.004
same,refractive index,[1]; x2 = 0.0888,1.5095 ± 0.004
same,refractive index,[1]; x2 = 0.1723,1.4998 ± 0.004
same,refractive index,[1]; x2 = 0.3184,1.4879 ± 0.004
same,refractive index,[1]; x2 = 0.4448,1.4709 ± 0.004
same,refractive index,[1]; x2 = 0.5541,1.459 ± 0.004
same,refractive index,[1]; x2 = 0.6508,1.4441 ± 0.004
same,refractive index,[1]; x2 = 0.736,1.4285 ± 0.004
same,refractive index,[1]; x2 = 0.8121,1.406 ± 0.004
same,refractive index,[1]; x2 = 0.8816,1.3923 ± 0.004
same,refractive index,[1]; x2 = 0.9434,1.3746 ± 0.004
same,refractive index,[1]; x2 = 0.9725,1.3678 ± 0.004
Nc1ccccc1 [aniline],vapor or sublimation pressure,[2]; 455.4 K,96.15 ± 0.99 kPa
same,refractive index,[3],1.5868 ± 0.004
CN(C)C=O [dimethylformamide],vapor or sublimation pressure,[2]; 424.53 K,96.15 ± 0.99 kPa
same,vapor or sublimation pressure,[2]; 424.6 K,96.15 ± 0.99 kPa
same,refractive index,[3],1.4318 ± 0.004
COc1ccccc1 [anisole] + CC(C)O,refractive index,[1]; x2 = 0,1.5175 ± 0.004
same,refractive index,[1]; x2 = 0.0879,1.5092 ± 0.004
same,refractive index,[1]; x2 = 0.1663,1.5011 ± 0.004
same,refractive index,[1]; x2 = 0.3122,1.484 ± 0.004
same,refractive index,[1]; x2 = 0.4359,1.4688 ± 0.004
same,refractive index,[1]; x2 = 0.5438,1.4543 ± 0.004
same,refractive index,[1]; x2 = 0.6429,1.4403 ± 0.004
same,refractive index,[1]; x2 = 0.7293,1.4272 ± 0.004
same,refractive index,[1]; x2 = 0.8063,1.4143 ± 0.004
same,refractive index,[1]; x2 = 0.879,1.4019 ± 0.004
same,refractive index,[1]; x2 = 0.9372,1.3911 ± 0.004
same,refractive index,[1]; x2 = 0.9693,1.3861 ± 0.004
CC(C)=O [acetone] + COc1ccccc1,refractive index,[1]; x1 = 1,1.3606 ± 0.004
CC(C)=O [acetone],vapor or sublimation pressure,[2]; 327.9 K,96.15 ± 0.98 kPa
same,refractive index,[3],1.3606 ± 0.004
CC(=O)O [acetic acid] + COc1ccccc1,refractive index,[1]; x1 = 1,1.3724 ± 0.004
CC(C)O [propan-2-ol],vapor or sublimation pressure,[2]; 354.17 K,96.15 ± 0.98 kPa
same,refractive index,[3],1.3758 ± 0.004
CN(C)C=O [dimethylformamide] + Nc1ccccc1,refractive index,[1]; x1 = 1,1.4318 ± 0.004
CC(=O)O [acetic acid],vapor or sublimation pressure,[2]; 388.91 K,96.15 ± 0.98 kPa
same,refractive index,[3],1.3724 ± 0.004
CC(C)O [propan-2-ol] + COc1ccccc1,refractive index,[1]; x1 = 1,1.3758 ± 0.004
Nc1ccccc1 [aniline] + CN(C)C=O,refractive index,[1]; x2 = 0,1.5868 ± 0.004
same,refractive index,[1]; x2 = 0.0624,1.5795 ± 0.004
same,refractive index,[1]; x2 = 0.1252,1.5723 ± 0.004
same,refractive index,[1]; x2 = 0.2423,1.5575 ± 0.004
same,refractive index,[1]; x2 = 0.3527,1.543 ± 0.004
same,refractive index,[1]; x2 = 0.459,1.5267 ± 0.004
same,refractive index,[1]; x2 = 0.5592,1.5119 ± 0.004
same,refractive index,[1]; x2 = 0.6561,1.4975 ± 0.004
same,refractive index,[1]; x2 = 0.7474,1.4799 ± 0.004
same,refractive index,[1]; x2 = 0.8363,1.4638 ± 0.004
same,refractive index,[1]; x2 = 0.9206,1.4477 ± 0.004
same,refractive index,[1]; x2 = 0.9602,1.4401 ± 0.004
